Laboratory results: patent US20070104774A1, “Method for preparing phytosphingosine liposome composition” (priority 2003, published 2007)

How the values were obtained:
[1] = Stability test of water lotion formulation of phytosphingosine liposome: size and sedimentation on storage at R.T. and low temperature; format: physicochemical; settings: dissolved using an acid only such as lactic acid; as time went by and at low temperatures
Method: For a liposome solution containing 4 wt. % of phytosphingosine prepared according to Examples 3 and 7 and a solution in which the liposome solution was diluted so as to make a final concentration of phytosphingosine be 0.5% in a water lotion product, it was examined a stability of phytosphingosine liposome in water lotion formulation, based on sizes and sedimentation states as time went by and sizes and sedimentation states when storing at R.T. and a low temperature, respectively. Water lotion formulations used in the above test are as follows. The unit is wt. %. In water lotion formulations of liposome containing phytosphingosine, results of size variations as time went by are as follows. The unit is nm.

[2] = cited from earlier work

- behaviour on storage [1]: recrystallized
SMILES: CCCCCCCCCCCCCC[C@@H](O)[C@@H](O)[C@@H](N)CO [phytosphingosine]
- solubility in isocetyl alcohol ([2]; isocetyl alcohol solvent): 1 wt. %
- solubility in water ([2]; water): never dissolved in water
